Laboratory results: patent publication US10221163B2 (priority 2015, dated 2019)
Like-named read-outs stand apart in the source and are kept apart here.

How the values were obtained:
IMP-1 = IMP-1 (Serratia marcescens, UniProt P52699); assay: biochemical; type: biochemical; settings: fluorescence assay, CCF2-FA substrate, 2 pM enzyme, 2 hours at 25° C.; read-out: IMP-1 IC50
Outline: (§1)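 Inhibitor was mixed with the metallo-β-lactamase and CCF2-FA. After 2 hours at 25° C, fluorescence of the coumarin–fluorescein cephalosporin substrate was read. IC50 was calculated with a 4-parameter fit.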

NDM-1 = NDM-1 (Klebsiella pneumoniae, UniProt C7C422); assay: biochemical; type: biochemical; settings: fluorescence assay, CCF2-FA substrate, 1 pM enzyme, 2 hours at 25° C.; read-out: NDM-1 IC50
Outline: as §1

[1] = test system: Pseudomonas aeruginosa MB9798 vs MB9799; settings: ratio MITC95 PA_9798/MITC95 PA_9799
Outline: (§2)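 Steps: add fixed imipenem and/or ceftazidime (usually CLSI breakpoint) and fixed AmpC-directed class A/C inhibitor to microbroth MIC wells; titrate MBL inhibitor; record concentration regaining susceptibility for each PAO1-derived strain; divide efflux+ by efflux− value.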

[2] = test system: Pseudomonas aeruginosa efflux− (MB9799), IMP-1; type: cell-based; settings: concentration restoring susceptibility to imipenem at 2 μg/mL in the presence of a class A, C, D serine β-lactamase inhibitor closely related to relebactam
Outline: as §2

[3] = test system: Pseudomonas aeruginosa efflux+ (MB9798), IMP-1; type: cell-based; settings: concentration restoring susceptibility to imipenem at 2 μg/mL in the presence of a class A, C, D serine β-lactamase inhibitor closely related to relebactam
Outline: as §2

[4] = test system: Escherichia coli expressing NDM-1 (CLB30005, CLB30016); type: cell-based; settings: with imipenem 1 μg/ml; 95% inhibition of bacterial growth
Outline: (§3)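 Imipenem 1 μg/ml + inhibitor; MBL-expressing clinical strains in 1.1×CAMHB, inoculum from saline suspension diluted 1:100; 35° C, 22–24 h; absorbance read-out.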

[5] = test system: Serratia marcescens expressing IMP-1 (CL5741); type: cell-based; settings: with imipenem 1 μg/ml; 95% inhibition of bacterial growth
Outline: as §3

[6] = test system: Klebsiella pneumoniae expressing VIM-1 (IHMA599644); type: cell-based; settings: with imipenem 1 μg/ml; 95% inhibition of bacterial growth
Outline: as §3

VIM-1 = VIM-1 (Pseudomonas aeruginosa (strain ATCC 15692 / DSM 22644 / CIP 104116 / JCM 14847 / LMG 12228 / 1C / PRS 101 / PAO1), UniProt A0A0F7KYQ8); assay: biochemical; settings: CCF2-FA substrate, 30 pM enzyme, 2 hours at 25° C.
Outline: as §1

[7] = fluorescence assay, read-out: VIM-1 IC50

Chain of NDM-1 (C7C422 whole entry, looked up, species assumed): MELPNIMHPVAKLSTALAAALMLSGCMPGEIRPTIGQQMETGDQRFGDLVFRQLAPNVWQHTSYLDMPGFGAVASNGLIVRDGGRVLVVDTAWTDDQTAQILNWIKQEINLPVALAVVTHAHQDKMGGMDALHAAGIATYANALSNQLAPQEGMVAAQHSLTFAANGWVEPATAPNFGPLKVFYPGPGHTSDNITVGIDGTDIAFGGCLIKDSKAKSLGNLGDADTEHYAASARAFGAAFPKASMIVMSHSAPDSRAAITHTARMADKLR
Chain of IMP-1 (P52699 whole entry, looked up, species assumed): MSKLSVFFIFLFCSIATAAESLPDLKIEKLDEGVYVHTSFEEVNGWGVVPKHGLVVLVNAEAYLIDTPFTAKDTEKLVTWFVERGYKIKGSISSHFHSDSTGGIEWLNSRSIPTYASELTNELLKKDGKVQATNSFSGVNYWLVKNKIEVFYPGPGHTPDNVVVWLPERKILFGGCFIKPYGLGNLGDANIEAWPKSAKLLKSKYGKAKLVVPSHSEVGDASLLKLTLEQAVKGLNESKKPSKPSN

Row | SMILES | IC50 (IMP-1) [nM] | IC50 (NDM-1) [nM] | Efflux ratio [1] | P. aeruginosa expressing IMP-1, efflux − (MB9799) MITC95 [2] [µM] | P. aeruginosa expressing IMP-1, efflux + (MB9798) MITC95 [3] [µM] | Escherichia coli expressing NDM-1 (CLB30016) MITC95 [4] [µM] | Serratia marcescens expressing IMP-1 (CL5741) MITC95 [5] [µM] | Klebsiella pneumoniae expressing VIM-1 (IHMA599644) MITC95 [6] [µM] | IC50 (VIM-1; [7]) [nM] | IC50 (VIM-1; VIM-1 IC50, fluorescence assay) [nM]
1 | CN(C1CCS(=O)(=O)C1)S(=O)(=O)c1ccc(-c2cccc3sc(N)nc23)c(-c2nnn[nH]2)c1S(N)(=O)=O (stereo not drawn) [Example 41, 4-(2-amino-1,3-benzothiazol-4-yl)-N^1-(1,1-dioxidotetrahydrothiophen-3-yl)-N~1~-methyl-3-(1H-tetrazol-5-yl)benzene-1,2-disulfonamide] | 0.81 | 0.938 | 8.00 | 3.125 | 25 | 25 | 6.25 | 25 | 1.75 | –
2 | Nc1nc2c(-c3ccc(S(=O)(=O)N4CC(F)(F)C4)c(S(N)(=O)=O)c3-c3nnn[nH]3)cccc2s1 [Example 42, 3-(2-amino-1,3-benzothiazol-4-yl)-6-[(3,3-difluoroazetidin-1-yl)sulfonyl]-2-(1H-tetrazol-5-yl)benzenesulfonamide] | 0.7 | 0.697 | 15.99 | 1.563 | 25 | 12.5 | 3.125 | 12.5 | – | 0.669
3 | Nc1nc2c(-c3ccc(S(=O)(=O)N4CCC(F)(F)C4)c(S(N)(=O)=O)c3-c3nnn[nH]3)cccc2s1 [Example 43, 3-(2-amino-1,3-benzothiazol-4-yl)-6-[(3,3-difluoropyrrolidin-1-yl)sulfonyl]-2-(1H-tetrazol-5-yl)benzenesulfonamide] | 1.23 | 2.07 | 63.98 | 1.563 | 100 | 25 | 6.25 | 100 | 1.86 | –
4 | Nc1nc2c(-c3ccc(S(=O)(=O)N4CC[S+]([O-])CC4)c(S(N)(=O)=O)c3-c3nnn[nH]3)cccc2s1 [Example 44, 3-(2-amino-1,3-benzothiazol-4-yl)-6-[(1-oxidothiomorpholin-4-yl)sulfonyl]-2-(1H-tetrazol-5-yl)benzenesulfonamide] | 2.22 | 0.872 | 2.00 | 6.25 | 12.5 | 25 | 6.25 | 25 | 2.06 | –
5 | Nc1nc2c(-c3ccc(S(=O)(=O)NCC4(F)CNC4)c(S(N)(=O)=O)c3-c3nnn[nH]3)cccc2s1 [Example 46, 4-(2-amino-1,3-benzothiazol-4-yl)-N^1-[(3-fluoroazetidin-3-yl)methyl]-3-(1H-tetrazol-5-yl)benzene-1,2-disulfonamide] | 0.289 | 0.0572 | 0.50 | 1.563 | 0.7813 | 6.25 | 1.563 | 3.125 | 0.321 | –
6 | NCC(F)(F)CNS(=O)(=O)c1ccc(-c2cccc3sc(N)nc23)c(-c2nnn[nH]2)c1S(N)(=O)=O [Example 47, 4-(2-amino-1,3-benzothiazol-4-yl)-N1-(3-amino-2,2-difluoropropyl)-3-(1H-tetrazol-5-yl)benzene-1,2-disulfonamide] | 0.484 | 0.0658 | 1.00 | 3.125 | 3.125 | 6.25 | 3.125 | 12.5 | 0.304 | –
7 | Nc1nc2c(-c3ccc(S(=O)(=O)N4CC5(CCNC5)C4)c(S(N)(=O)=O)c3-c3nnn[nH]3)cccc2s1 [Example 48, 3-(2-amino-1,3-benzothiazol-4-yl)-6-(2,6-diazaspiro[3.4]oct-2-ylsulfonyl)-2-(1H-tetrazol-5-yl)benzenesulfonamide] | 0.951 | 0.258 | 1.00 | 1.563 | 1.563 | 6.25 | 3.125 | 3.125 | 0.49 | –
8 | Nc1nc2c(-c3ccc(S(=O)(=O)NCCC(N)C(F)(F)F)c(S(N)(=O)=O)c3-c3nnn[nH]3)cccc2s1 (stereo not drawn) [Example 49, 4-(2-amino-1,3-benzothiazol-4-yl)-N1-(3-amino-4,4,4-trifluorobutyl)-3-(1H-tetrazol-5-yl)benzene-1,2-disulfonamide] | 0.413 | 0.0673 | 8.00 | 6.25 | 50 | 25 | 12.5 | 25 | 0.328 | –
9 | Nc1nc2c(-c3ccc(S(=O)(=O)N[C@H]4CO[C@H]5[C@H]4OC[C@H]5O)c(S(N)(=O)=O)c3-c3nnn[nH]3)cccc2s1 [Example 50, 2-({[4-(2-amino-1,3-benzothiazol-4-yl)-2-sulfamoyl-3-(1H-tetrazol-5-yl)phenyl]sulfonyl}amino)-1,4:3,6-dianhydro-2-deoxy-D-allitol] | 0.263 | 0.0408 | 2.00 | 6.25 | 12.5 | 25 | 12.5 | 25 | – | 0.25
10 | CC(CN1CCOCC1)NS(=O)(=O)c1ccc(-c2cccc3sc(N)nc23)c(-c2nnn[nH]2)c1S(N)(=O)=O (stereo not drawn) [Example 51, 4-(2-amino-1,3-benzothiazol-4-yl)-N1-(1-methyl-2-morpholin-4-ylethyl)-3-(1H-tetrazol-5-yl)benzene-1,2-disulfonamide] | 0.393 | 0.097 | 4.00 | 6.25 | 25 | 25 | 12.5 | 25 | 0.441 | –
11 | CN(C)CCCN(C)S(=O)(=O)c1ccc(-c2cccc3sc(N)nc23)c(-c2nnn[nH]2)c1S(N)(=O)=O [Example 52, 4-(2-amino-1,3-benzothiazol-4-yl)-N1-[3-(dimethylamino)propyl]-N~1~-methyl-3-(1H-tetrazol-5-yl)benzene-1,2-disulfonamide] | 5.94 | 15.3 | 2.00 | 3.125 | 6.25 | 12.5 | 3.125 | 50 | 25.3 | –
12 | CN1CCC(NS(=O)(=O)c2ccc(-c3cccc4sc(N)nc34)c(-c3nnn[nH]3)c2S(N)(=O)=O)C1 (stereo not drawn) [Example 53, 4-(2-amino-1,3-benzothiazol-4-yl)-N1-(1-methylpyrrolidin-3-yl)-3-(1H-tetrazol-5-yl)benzene-1,2-disulfonamide] | 0.298 | 0.0415 | 1.00 | 1.563 | 1.563 | 3.125 | 1.563 | 3.125 | 0.192 | –
